According to patent US20240083892A1 (BISICHEM CO., LTD., priority 2021, published 2024):

Key:
RIPK1 [1] = target: T1, RIPK1 (Homo sapiens, UniProt Q13546); assay: Cell-based necroptosis assay for RIPK1 activity (cell viability by CCK-8); conditions: HT-29 cells; Z-VAD-FMK 20 μM, human TNFα 10 ng/ml, SM-164 100 nM; 24 h; read-out: Cell-base RIPK1 activity: Necroptosis
T1 construct: endogenous in cells; host or cells: HT-29 (KCLB 30038)
T1 sequence (Q13546 1-671): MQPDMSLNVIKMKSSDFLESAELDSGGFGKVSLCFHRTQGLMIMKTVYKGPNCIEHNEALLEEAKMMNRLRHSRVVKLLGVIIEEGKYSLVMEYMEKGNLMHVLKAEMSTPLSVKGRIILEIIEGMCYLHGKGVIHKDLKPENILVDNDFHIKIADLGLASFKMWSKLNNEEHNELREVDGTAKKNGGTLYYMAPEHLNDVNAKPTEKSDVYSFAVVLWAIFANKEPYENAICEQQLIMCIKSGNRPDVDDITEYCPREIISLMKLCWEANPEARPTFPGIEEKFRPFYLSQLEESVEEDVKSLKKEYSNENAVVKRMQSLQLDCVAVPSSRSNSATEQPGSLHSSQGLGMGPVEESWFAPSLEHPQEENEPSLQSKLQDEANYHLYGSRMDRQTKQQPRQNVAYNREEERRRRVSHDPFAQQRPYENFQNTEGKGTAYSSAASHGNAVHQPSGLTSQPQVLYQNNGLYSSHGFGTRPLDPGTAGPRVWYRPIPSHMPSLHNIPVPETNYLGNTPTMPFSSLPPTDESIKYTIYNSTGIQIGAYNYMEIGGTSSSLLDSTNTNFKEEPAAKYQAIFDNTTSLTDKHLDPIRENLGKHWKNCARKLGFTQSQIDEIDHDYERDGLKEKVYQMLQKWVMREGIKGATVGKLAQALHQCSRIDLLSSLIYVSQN
How it was run: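 HT-29 cells pretreated 30 min with 20 μM Z-VAD-FMK, then necroptosis induced with human TNFα 10 ng/ml plus SM-164 100 nM alongside RIPK1 inhibitor (0.0001–10 uM) for 24 h. Viability read by CCK-8.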

RIPK1 [2] = target: T1, RIPK1; assay: Immunoblotting of TNFα induced phospho-RIPK1 (ser 166) levels; assay type: cell-based; conditions: HMC3 cells; Z-VAD-FMK, human TNFα 20 ng/ml, SM-164 100 nM; 7 h, serum free media; read-out: Cell-base RIPK1 activity: phspho-RIPK1 (Ser166)
How it was run: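 HMC3 human microglial cells were pretreated 30 min with Z-VAD-FMK […]. They were then given TNFα 20 ng/ml, SM-164 100 nM and inhibitor (0.1, 1, 10 nM) for 7 h in serum-free medium. BCA-normalised lysates were immunoblotted for phospho-RIPK1 Ser166.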

Structure (SMILES)	IC50 (RIPK1 [1])	IC50 (RIPK1 [2])
CN1C(=O)[C@@H](NC(=O)n2cc(Cc3cccc(F)c3)cn2)COc2ccc(OCC(=O)n3cc(O[Si](C)(C)C(C)(C)C)cn3)cc21 [Example 54, (S)—N-(7-(2-(4-((tert-butyldimethylsilyl)oxy)-1H-pyrazol-1-yl)-2-oxoethoxy)-5-methyl-4-oxo-2,3,4,5-tetrahydrobenzo[b][1,4]oxazepin-3-yl)-4-(3-fluorobenzyl)-1H-pyrazole-1-carboxamide]	10 to 50 nM	10 to 50 nM
CN1C(=O)[C@@H](NC(=O)n2cc(Cc3cccc(F)c3)cn2)COc2ccc(OCC3CCOCC3)cc21 [Example 55, (S)-4-(3-fluorobenzyl)-N-(5-methyl-4-oxo-7-((tetrahydro-2H-pyran-4-yl)methoxy)-2,3,4,5-tetrahydrobenzo[b][1,4]oxazepin-3-yl)-1H-pyrazole-1-carboxamide]	< 10 nM	< 10 nM
CN1C(=O)[C@@H](NC(=O)n2cc(Cc3cccc(F)c3)cn2)COc2ccc(OCc3ccccc3)cc21 [Example 56, (S)—N-(7-(benzyloxy)-5-methyl-4-oxo-2,3,4,5-tetrahydrobenzo[b][1,4]oxazepin-3-yl)-4-(3-fluorobenzyl)-1H-pyrazole-1-carboxamide]	< 10 nM	< 10 nM
CN1C(=O)[C@@H](NC(=O)n2cc(Cc3cccc(F)c3)cn2)COc2ccc(OCc3ccc(F)cc3)cc21 [Example 57, (S)-4-(3-fluorobenzyl)-N-(7-((4-fluorobenzyl)oxy)-5-methyl-4-oxo-2,3,4,5-tetrahydrobenzo[b][1,4]oxazepin-3-yl)-1H-pyrazole-1-carboxamide]	< 10 nM	< 10 nM
CN1C(=O)[C@@H](NC(=O)n2cc(Cc3cccc(F)c3)cn2)COc2ccc(OCc3ccc(F)cn3)cc21 [Example 58, (S)-4-(3-fluorobenzyl)-N-(7-((5-fluoropyridin-2-yl)methoxy)-5-methyl-4-oxo-2,3,4,5-tetrahydrobenzo[b][1,4]oxazepin-3-yl)-1H-pyrazole-1-carboxamide]	< 10 nM	< 10 nM
CN1C(=O)[C@@H](NC(=O)n2cc(Cc3cccc(F)c3)cn2)COc2ccc(OCc3ccc(F)nc3)cc21 [Example 59, (S)-4-(3-fluorobenzyl)-N-(7-((6-fluoropyridin-3-yl)methoxy)-5-methyl-4-oxo-2,3,4,5-tetrahydrobenzo[b][1,4]oxazepin-3-yl)-1H-pyrazole-1-carboxamide]	< 10 nM	< 10 nM
CN1C(=O)[C@@H](NC(=O)n2cc(Cc3cccc(F)c3)cn2)COc2ccc(OCc3ccnc(F)c3)cc21 [Example 60, (S)-4-(3-fluorobenzyl)-N-(7-((2-fluoropyridin-4-yl)methoxy)-5-methyl-4-oxo-2,3,4,5-tetrahydrobenzo[b][1,4]oxazepin-3-yl)-1H-pyrazole-1-carboxamide]	< 10 nM	< 10 nM
COc1cc(COc2ccc3c(c2)N(C)C(=O)[C@@H](NC(=O)n2cc(Cc4cccc(F)c4)cn2)CO3)ccn1 [Example 61, (S)-4-(3-fluorobenzyl)-N-(7-((2-methoxypyridin-4-yl)methoxy)-5-methyl-4-oxo-2,3,4,5-tetrahydrobenzo[b][1,4]oxazepin-3-yl)-1H-pyrazole-1-carboxamide]	< 10 nM	< 10 nM
CN1C(=O)[C@@H](NC(=O)n2cc(Cc3cccc(F)c3)cn2)COc2ccc(OCc3cnc(Cl)nc3)cc21 [Example 62, (S)—N-(7-((2-chloropyrimidin-5-yl)methoxy)-5-methyl-4-oxo-2,3,4,5-tetrahydrobenzo[b][1,4]oxazepin-3-yl)-4-(3-fluorobenzyl)-1H-pyrazole-1-carboxamide]	< 10 nM	< 10 nM
CN1C(=O)[C@@H](NC(=O)n2cc(Cc3cccc(F)c3)cn2)COc2ccc(OCc3nccn3C)cc21 [Example 63, (S)-4-(3-fluorobenzyl)-N-(5-methyl-7-((1-methyl-1H-imidazol-2-yl)methoxy)-4-oxo-2,3,4,5-tetrahydrobenzo[b][1,4]oxazepin-3-yl)-1H-pyrazole-1-carboxamide]	< 10 nM	< 10 nM
